B1: interferon-γ: interferon used to treat Jurkat cells (protein, UniProt P01579 24-161, looked up)
Interferon gamma: QDPYVKEAENLKKYFNAGHSDVADNGTLFLGILKNWKEESDRKIMQSQIVSFYFKLFKNFKDDQSIQKSVETIKEDMNVKFFNSNKKKRDDFEKLTNYSVTDLNVQRKAIHELIQVMAELSPAAKTGKRKRSQMLFRG

Columns and labels:
[1] = tested on: hormone-resistant clones of human CEM-C7, T-ALL cells, or mouse SAK8 T-lymphoma cells; settings: hormone-resistant clones in culture; cited from earlier work
[2] = tested on: GR 1A3 exon-containing transcripts in CEM-C7 cells; test: Northern blot of GR exon 1A transcripts after glucocorticoid treatment; type: cell-based, human; settings: 1 μM, data not shown
Excerpt: Glucocorticoid hormone treatment is known to up-regulate the levels of both GR mRNA and GR protein in immature T-lymphocytes and in some T-lymphoblasts that undergo apoptosis following hormone treatment. See Denton et al., (1993); and L. P. Eisen et al., “Positive Regulation of the Glucocorticoid Receptor in Human T-Cells Sensitive to the Cytolytic Effects of Glucocorticoids,” J. Biol. Chem., vol. 263, pp. 12044-12048 (1988). The human CEM-C7 acute lymphoblastic leukemia (ALL) cell line has served as a model system for glucocorticoid-sensitive human T-cell ALL. See M. R. Norman and E. B. Thompson, “Characterization of a Glucocorticoid-Sensitive Human Lymphoid Cell Line,” Cancer Res., vol. 37, pp. 3785-3791 (1977). CEM-C7 cells were treated with 1 μM dexamethasone (a glucocorticoid analogue) for various periods of time, from 6 hr to 48 hr. RNA was then extracted, and northern blots were prepared and probed with the GR-1A-exon-specific probes (exon 1A1, exon 1A2, and exon 1A3; Table 1). […] Up-regulation of exon 1A1 and exon 1A2 transcripts was also observed (data not shown).

[3] = tested on: GR exon 1 transcripts in CEM-C7 cells; test: RT-PCR of GR exon 1 transcripts after hormone treatment, CEM-C7; settings: 1 μM
[4] = tested on: IRF-1 and IRF-2 protein levels in Jurkat cells; test: IRF protein levels in interferon-treated Jurkat cells; type: cell-based, human; settings: data not shown
Excerpt: By identifying transcription factor binding sites in the 1A promoter and exon, we will determine whether activation of any of these factors will directly activate the hGR 1A promoter. […] See H. Harada et al., “Structurally Similar but Functionally Distinct Factors, IRF-1 and IRF-2, Bind to the Same Regulatory Elements of IFN and IFN-Inducible Genes,” Cell, vol. 58, pp. 729-739 (1989).

exon 1A1 and exon 1A2 transcripts [2] | Molecule | sensitivity to glucocorticoid-mediated killing [1] | increase in exon 1A3-containing transcripts [3] [fold] | IRF-1 protein levels [4] | IRF-2 protein levels [4]
– | Nc1ncn([C@@H]2O[C@H](CO)[C@@H](O)[C@H]2O)c(=O)n1 [5-azacytidine] | become stably sensitive to glucocorticoid-mediated killing | – | – | –
Up-regulation | C[C@@H]1C[C@H]2[C@@H]3CCC4=CC(=O)C=C[C@]4(C)[C@@]3(F)[C@@H](O)C[C@]2(C)[C@@]1(O)C(=O)CO [dexamethasone] | – | 2.5 | – | –
– | interferon-α | – | – | dramatic increase | not IRF-2
– | B1 | – | – | dramatic increase | not IRF-2
